# Laboratory results taken from US11667645B2, “Granzyme B directed imaging and therapy” (CytoSite Biopharma Inc., priority 2018, dated 2023).
# Molecular target: Granzyme B (human lymphocytes) (Homo sapiens (Human), UniProt P10144)
# Test: human Granzyme B biochemical assay
# Settings: Granzyme B (human lymphocytes) 5 nM, substrate Ac-IETD-AFC 200 μM, Cpd incubation with enzyme 30 mins, 22° C., read time 60 mins; read-out: IC50
# Text: The compounds of Formula I-VIII described above can be tested using the human Granzyme B biochemical assay provided below.
# Materials: • 1. Granzyme B (human lymphocytes) Enzyme: Enzo Lifesciences, Cat #ALX-200-602-0010 • 2. Substrate (Ac-IETD-AFC): Enzo Lifesciences, Cat #ALX-260-110-M010 • 3. Standard inhibitor (Compound 20-Isomer3): Synthesized internally in TCG • 4. Dimethyl sulfoxide (DMSO): Sigma-Aldrich, Cat #41639 • 5. HEPES: Gibco, Cat #15630-080 • 6. Calcium chloride: Sigma-Aldrich, Cat #C-5080 • 7. Distilled water: Gibco, Cat #15230-162 • 8. Bovine serum albumin (BSA): Sigma-Aldrich, Cat #A3059 • 9. Black, clear bottom PDL plate (384 wells): Greiner bio-one, Cat #781946 • 10. Polypropylene plate (384 wells): Corning, Cat #3657 Assay Buffer Composition:
# Compound Preparation: • 1. DMSO is added to the respective compound vial to make 10 mM Compound stock solution, which is stored at −20° C. • 2. 10 mM Compound stock solution is thawed and 1 mM DMSO stock solution is prepared by adding 45 μl of DMSO to 5 μl of 10 mM compound stock solution. • 3. 1 mM DMSO stock solution is serially diluted (3.16 fold) by adding 10 μl of 1 mM DMSO stock to 21.6 μl of DMSO and mixed well. 10 μl of the resulting solution is then added to 21.6 μl of DMSO and mixed well. This process is continued to create 11 dilution points for the assay standard inhibitor and 8 dilution points for test compounds in 384 well polypropylene plate. • 4. 2 μl of each dilution are dispensed in assay ready plate. • 5. Each well is then diluted 25 fold by adding 48 μl of assay buffer to 2 μl of compound in assay ready plate to make Compound working stock. Enzyme Preparation: • 1. Supplied Granzyme B (human lymphocytes) enzyme is reconstituted to 1 mg/ml (about 31.25 μM) and 1 μl aliquots are kept in −80° C. • 2. 1 μl aliquot is diluted to 625 nM by adding 49 μl of assay buffer containing 0.1% BSA and gently mixed. • 3. 10 nM enzyme working stock is prepared by adding assay buffer containing 0.1% BSA. Substrate Preparation: • 1. Supplied substrate (Ac-IETD-AFC) is reconstituted by adding DMSO to make 10 mM stock, aliquoted and stored in −80° C. • 2. 4 mM substrate mid stock is prepared by adding DMSO. • 3. Substrate working stock i.e. 800 μM is prepared by adding assay buffer. Assay Protocol: • 1. 10 μl of serially diluted Compound working stock (start dose 40 μM) is added from assay ready plate to assay plate according to the plate map. • 2. Positive control (40 μM of standard inhibitor) and negative control (4% DMSO buffer) are added to the respective wells. • 3. 20 μl of Enzyme working stock is added to assay plate and gently mixed. • 4. The plate is incubated at 22° C. for 30 mins and spun at 130 g for 1 minute. • 5. After incubation, 10 μl of Substrate working stock is added to respective wells and mixed (Assay plate is maintained in dark after substrate addition). • 6. The plate is incubated at 22° C. for 60 mins and spun at 130 g for 1 minute. • 7. Fluorescence read (RFU) (Ex: 400 nm/Em: 505 nm) is taken after 60 mins in EnVision Multimode plate reader. Final Assay Concentration:
# Data Analysis: • 1. The RFU read is analyzed to calculate percent inhibition by normalizing with positive and negative controls taken as 100% and 0% effect respectively in Microsoft excel. • 2. Graph is generated by putting the analyzed data in GraphPad prism 5.0 software to get IC50 value for each compound.
# Chain of Granzyme B (human lymphocytes) (P10144 21-247): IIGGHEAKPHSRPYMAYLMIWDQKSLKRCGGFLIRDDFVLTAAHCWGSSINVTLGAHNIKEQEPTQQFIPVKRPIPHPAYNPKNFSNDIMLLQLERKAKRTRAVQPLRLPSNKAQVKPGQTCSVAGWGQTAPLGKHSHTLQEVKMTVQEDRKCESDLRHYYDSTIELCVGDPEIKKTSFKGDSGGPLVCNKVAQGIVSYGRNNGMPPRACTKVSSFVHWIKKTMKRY
row,Compound,IC50
1,"CCC(C)[C@H](NC(=O)COCCF)C(=O)N[C@H]1CCc2cccc3c2N(C1=O)[C@H](C(=O)NCc1ccoc1)C3 (stereo in doubt) [Compound C108, (2S,5S)-5-{(2S,3R)-2-[2-(2-Fluoro-ethoxy)-acetylamino]-3-methyl-pentanoylamino}-4-oxo-1,2,4,5,6,7-hexahydro-azepino[3,2,1-hi]indole-2-carboxylic acid (furan-3-ylmethyl)-amide]",> 5 µM
2,"O=C(Cc1csc2ccccc12)NCC(=O)N[C@H]1CCc2cccc3c2N(C1=O)[C@H](C(=O)NCc1c[nH]nn1)C3 [Compound C001, (2S,5S)-5-[2-(2-Benzo[b]thiophen-3-yl-acetylamino)-acetylamino]-4-oxo-1,2,4,5,6,7-hexahydro-azepino[3,2,1-hi]indole-2-carboxylic acid (1H-[1,2,3]triazol-4-ylmethyl)-amide]",> 5 µM
3,"C[C@H](NC(=O)Cc1csc2ccccc12)C(=O)N[C@H]1CCc2cccc3c2N(C1=O)[C@H](C(=O)NCc1c[nH]nn1)C3 [Compound C002, (2S,5S)-5-[(S)-2-(2-Benzo[b]thiophen-3-yl-acetylamino)propionylamino]-4-oxo-1,2,4,5,6,7-hexahydro-azepino[3,2,1-hi]indole-2-carboxylic acid (1H-[1,2,3]triazol-4-ylmethyl)amide]",1 to 5 µM
4,"O=C(Cc1csc2ccccc12)N[C@@H](Cc1ccccc1)C(=O)N[C@H]1CCc2cccc3c2N(C1=O)[C@H](C(=O)NCc1c[nH]nn1)C3 [Compound C004, (2S,5S)-5-[(S)-2-(2-Benzo[b]thiophen-3-yl-acetylamino)-3-phenyl-propionylamino]-4-oxo-1,2,4,5,6,7-hexahydro-azepino[3,2,1-hi]indole-2-carboxylic acid (1H-[1,2,3]triazol-4-ylmethyl)-amide]",> 5 µM
5,"CC(C)C[C@H](NC(=O)Cc1csc2ccccc12)C(=O)N[C@H]1CCc2cccc3c2N(C1=O)[C@H](C(=O)NCc1c[nH]nn1)C3 [Compound C005, (2S,5S)-5-[(S)-2-(2-Benzo[b]thiophen-3-yl-acetylamino)-4-methyl-pentanoylamino]-4-oxo-1,2,4,5,6,7-hexahydro-azepino[3,2,1-hi]indole-2-carboxylic acid (1H-[1,2,3]triazol-4-ylmethyl)-amide]",1 to 5 µM
6,"O=C(Cc1csc2ccccc12)N[C@@H](CO)C(=O)N[C@H]1CCc2cccc3c2N(C1=O)[C@H](C(=O)NCc1c[nH]nn1)C3 [Compound C007, (2S,5S)-5-[(S)-2-(2-Benzo[b]thiophen-3-yl-acetylamino)-3-hydroxy-propionylamino]-4-oxo-1,2,4,5,6,7-hexahydro-azepino[3,2,1-hi]indole-2-carboxylic acid (1H-[1,2,3]triazol-4-ylmethyl)-amide]",> 5 µM
7,"O=C(O)CC[C@H](NC(=O)Cc1csc2ccccc12)C(=O)N[C@H]1CCc2cccc3c2N(C1=O)[C@H](C(=O)NCc1c[nH]nn1)C3 [Compound C008, (S)-4-(2-Benzo[b]thiophen-3-yl-acetylamino)-4-{(2S,5S)-4-oxo-2-[(1H-[1,2,3]triazol-4-ylmethyl)-carbamoyl]-1,2,4,5,6,7-hexahydro-azepino[3,2,1-hi]indol-5-ylcarbamoyl}butyric acid]",> 5 µM
8,"O=C(Cc1csc2ccccc12)N[C@H](C(=O)N[C@H]1CCc2cccc3c2N(C1=O)[C@H](C(=O)NCc1c[nH]nn1)C3)c1ccccc1 [Compound C009, (2S,5S)-5-[(S)-2-(2-Benzo[b]thiophen-3-yl-acetylamino)-2-phenyl-acetylamino]-4-oxo-1,2,4,5,6,7-hexahydro-azepino[3,2,1-hi]indole-2-carboxylic acid (1H-[1,2,3]triazol-4-ylmethyl)-amide]",> 5 µM
9,"O=C(Cc1csc2ccccc12)N[C@@H](Cc1ccc(O)cc1)C(=O)N[C@H]1CCc2cccc3c2N(C1=O)[C@H](C(=O)NCc1c[nH]nn1)C3 [Compound C010, (2S,5S)-5-[(S)-2-(2-Benzo[b]thiophen-3-yl-acetylamino)-3-(4-hydroxy-phenyl)-propionylamino]-4-oxo-1,2,4,5,6,7-hexahydro-azepino[3,2,1-hi]indole-2-carboxylic acid (1H-[1,2,3]triazol-4-ylmethyl)-amide]",> 5 µM
10,"O=C(Cc1csc2ccccc12)N[C@@H](Cc1ccc(F)cc1)C(=O)N[C@H]1CCc2cccc3c2N(C1=O)[C@H](C(=O)NCc1c[nH]nn1)C3 [Compound C011, (2S,5S)-5-[(S)-2-(2-Benzo[b]thiophen-3-yl-acetylamino)-3-(4fluoro-phenyl)-propionylamino]-4-oxo-1,2,4,5,6,7-hexahydro-azepino[,3,2,1-hi]indole-2-carboxylic acid (1H-[1,2,3]triazol-4-ylmethyl)-amide]",> 5 µM
11,"C[C@H](NC(=O)Cc1ccccc1)C(=O)N[C@H]1CCc2cccc3c2N(C1=O)[C@H](C(=O)NCc1c[nH]nn1)C3 [Compound C013, (2S,5S)-4-Oxo-5-((S)-2-phenylacetylamino-propionylamino)-1,2,4,5,6,7-hexahydro-azepino[3,2,1-hi]indole-2-carboxylic acid (1H-[1,2,3]triazol-4-ylmethyl)-amide]",> 5 µM
12,"CC(C)[C@H](NC(=O)Cc1ccccc1)C(=O)N[C@H]1CCc2cccc3c2N(C1=O)[C@H](C(=O)NCc1c[nH]nn1)C3 [Compound C014, (2S,5S)-5-((S)-3-Methyl-2-phenylacetylamino-butyrylamino)-4-oxo-1,2,4,5,6,7-hexahydro-azepino[3,2,1-hi]indole-2-carboxylic acid (1H-[1,2,3]triazol-4-ylmethyl)-amide]",0.001 to 0.3 µM
13,"O=C(Cc1ccccc1)N[C@@H](Cc1ccccc1)C(=O)N[C@H]1CCc2cccc3c2N(C1=O)[C@H](C(=O)NCc1c[nH]nn1)C3 [Compound C015, (2S,5S)-4-Oxo-5-((S)-3-phenyl-2-phenylacetylamino-propionylamino)-1,2,4,5,6,7-hexahydro-azepino[3,2,1-hi]indole-2-carboxylic acid (1H-[1,2,3]triazol-4-ylmethyl)-amide]",1 to 5 µM
14,"CC(C)C[C@H](NC(=O)Cc1ccccc1)C(=O)N[C@H]1CCc2cccc3c2N(C1=O)[C@H](C(=O)NCc1c[nH]nn1)C3 [Compound C016, (2S,5S)-5-((S)-4-Methyl-2-phenylacetylamino-pentanoylamino)-4-oxo-1,2,4,5,6,7-hexahydro-azepino[3,2,1-hi]indole-2-carboxylic acid (1H-[1,2,3]triazol-4-ylmethyl)-amide]",1 to 5 µM
15,"CC[C@H](C)[C@H](NC(=O)Cc1ccccc1)C(=O)N[C@H]1CCc2cccc3c2N(C1=O)[C@H](C(=O)NCc1c[nH]nn1)C3 [Compound C017, (2S,5S)-5-((2S,3S)-3-Methyl-2-phenylacetylamino-pentanoylamino)-4-oxo-1,2,4,5,6,7-hexahydro-azepino[3,2,1-hi]indole-2-carboxylic acid(1H-[1,2,3]triazol-4-ylmethyl)-amide]",0.001 to 0.3 µM
16,"O=C(Cc1ccccc1)N[C@@H](CO)C(=O)N[C@H]1CCc2cccc3c2N(C1=O)[C@H](C(=O)NCc1c[nH]nn1)C3 [Compound C018, (2S,5S)-5-((S)-3-Hydroxy-2-phenylacetylamino-propionylamino)-4-oxo-1,2,4,5,6,7-hexahydro-azepino[3,2,1-hi]indole-2-carboxylic acid (1H-[1,2,3]triazol-4-ylmethyl)-amide]",> 5 µM
